In patent US20260097004A1, “PHARMACEUTICAL COMPOSITION FOR TREATING MAST CELL-MEDIATED INFLAMMATORY DISEASES” (priority 2022, published 2026):

Experiments:
LAD2 cells = experiment: Intracellular calcium ion flow experiment (calcium imaging, Fluo-3); assay type: cell-based; details: Atovaquone at different concentrations (0, 1, 10, 100 nM and 1 μM), incubation 30 min; FIG. 3
Description: (§1) An incubation buffer was composed of: 0.5 μl of Fluo-3, 2 μl of Pluronic F-127 and 997.5 μl of CIB (calcium imaging buffer: 125 mM NaCl, 3 mM KCl, 2.5 mM CaCl2, 0.6 mM MgCl2, 10 mM HEPES, 20 mM glucose, 1.2 mM NaHCO3 and 20 mM sucrose, and pH=7.4). Different concentrations (0, 1, 10, 100 nM and 1 μM) of Atovaquone were prepared in the incubation buffer, and an incubation buffer solution without Atovaquone was used as a negative control. LAD2 cells were washed twice with CIB, and then a desired incubation buffer solution was added. After incubation for 30 min, the cells were washed twice with CIB, and then inoculated into a 96-well plate for calcium imaging. For calcium imaging, the cells were magnified 200× and a photo was obtained per second under blue light. After a substance was injected, the cells were confirmed as being responsive if [Ca^2+] rose by at least 50%.

LAD2 mast cells = experiment: β-hexosaminidase assay of mast cell degranulation stimulated by SP; assay type: cell-based; details: SP stimulating experiment, FIG. 1
Description: An experimental method using a β-hexosaminidase assay comprises the following steps: • 1. a PNAG/HEPES buffer/0.1% Triton-100/glycine solution was prepared at a normal temperature; • 2. LAD2 cell was taken out from an incubator at 37° C. and cell count was read, and then an appropriate amount of cell suspension was taken according to experimental cell requirements (estimated based on 5000-10000/well); • 3. the LAD2 cell suspension was centrifuged for 5 min on a centrifuge at 4° C. at […], and then supernatant was discarded; • 4. cells were evenly mixed in the solution after HEPES buffer was added; • 5. the cell suspension was transferred to a 96-well plate, with 80 ul per well; • 6. a to-be-tested drug Atovaquone was added to a corresponding position according to experiment design, the positions of a positive control SP (neuropeptide substance P), a negative control QWF (MRGPRX2 receptor antagonist) and a blank control were reserved, and each drug was administrated for three repetitions; • 7. the cells were co-incubated with the drug for 30 min; • 8. […]
Detection of m Absorbance
• 12. the degranulation percentage of mast cells was calculated.
According to a formula: degranulation percentage-2×absorbance of supernatant plate/(absorbance of supernatant plate+[…]absorbance of cell lysis plate)×100%

MrgA1 = target: T1, MrgA1 (Mus musculus, UniProt Q91WW5); experiment: Calcium ion flow when substance P acts on MrgA1; assay type: cell-based; details: substance P 10 μM acted on MrgA1; cells with vs without Atovaquone; FIG. 2
T1 sequence (Q91WW5 1-304): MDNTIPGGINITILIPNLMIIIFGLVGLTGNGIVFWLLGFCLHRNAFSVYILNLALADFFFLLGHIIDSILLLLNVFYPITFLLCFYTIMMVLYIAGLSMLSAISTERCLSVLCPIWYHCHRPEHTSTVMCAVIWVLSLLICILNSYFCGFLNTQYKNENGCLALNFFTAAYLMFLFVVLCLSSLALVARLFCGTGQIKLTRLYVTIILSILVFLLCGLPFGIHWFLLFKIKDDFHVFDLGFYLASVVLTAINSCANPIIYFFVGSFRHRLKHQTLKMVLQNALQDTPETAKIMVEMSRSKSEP
Description: as §1
(§2) FIG. 2 is a dynamic observation graph showing a calcium ion flow change when a substance P acted on different receptors, i.e., a schematic representation of the substance P acting on MrgA1, MrgX2 and NKIR (5 nM acted on NKIR, 50 nM acted on MrgX2 and 10 μM acted on MrgA1). This image set was photographed every 5 s from left to right for 120 s. In each group of graphs, a column represented cells with Atovaquone, the next column represented cells without Atovaquone.

NKIR = NKIR (Homo sapiens, UniProt P25103); experiment: Calcium ion flow when substance P acts on NKIR; assay type: cell-based; details: substance P 5 nM acted on NKIR; cells with vs without Atovaquone; FIG. 2
Description: as §1, §2

[1] = cited from earlier work

Chain of NKIR (P25103 whole entry): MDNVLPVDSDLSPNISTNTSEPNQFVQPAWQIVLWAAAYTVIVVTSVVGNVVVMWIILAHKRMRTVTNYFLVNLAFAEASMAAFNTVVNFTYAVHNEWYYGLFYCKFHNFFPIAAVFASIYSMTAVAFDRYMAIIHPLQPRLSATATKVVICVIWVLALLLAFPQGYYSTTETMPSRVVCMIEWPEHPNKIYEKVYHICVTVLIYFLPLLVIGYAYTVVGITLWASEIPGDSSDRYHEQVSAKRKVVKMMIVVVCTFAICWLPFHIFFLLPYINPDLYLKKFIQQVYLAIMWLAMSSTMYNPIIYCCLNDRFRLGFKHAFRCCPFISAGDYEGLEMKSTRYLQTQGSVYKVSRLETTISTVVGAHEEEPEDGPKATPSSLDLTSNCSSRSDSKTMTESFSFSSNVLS

- effect on MrgA1 mediated calcium ion flow (MrgA1): inferior to that on MrgX2
- effect on NKIR mediated calcium ion flow (NKIR): inferior to that on MrgX2
SMILES: O=C1C(O)=C([C@H]2CC[C@H](c3ccc(Cl)cc3)CC2)C(=O)c2ccccc21 [Atovaquone]
- calcium ion flow (LAD2 cells): reduction in calcium ion flow
- inhibition of LAD2 mast cell degranulation compared with QWF (LAD2 mast cells): far superior to QWF
- degranulation of LAD2 mast cells (degranulation percentage) (LAD2 mast cells; cells co-incubated with drug 30 min, then SP 30 min): obviously improved
- drug dependence ([1]; after long-term use): no significant drug dependence phenomenon
- side effects ([1]; users in a population): low side effect characteristics
